One assay has as its target T1, NBD1 (Homo sapiens, UniProt P13569).
T1 construct: Purified recombinant NBD1 was produced using previously described methods; made in house
Description: Aggregation analysis using differential static light scattering (DSLS), thermal stability of NBD1 (ΔTagg). The settings on record: ΔTagg versus DMSO control, NBD1 0.2 mg/ml. Type of assay: binding. The gist of the method:
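Purified recombinant NBD1 at 0.2 mg/ml in 50 mM Tris-HCl, 150 mM NaCl, 5 mM MgCl2, 2 mM ATP, 2 mM DTT, pH 7.6, 1% glycerol, with compound, heated 1° C./min to 70° C. under light-scattering monitoring. Tagg taken at curve inflection; ΔTagg is compound Tagg minus mean DMSO-control Tagg, binned A (≤5° C.), B (>5-≤10° C.), C (>10-≤25° C.).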

A further assay concerns the target T2, CFTR (Homo sapiens, UniProt P13569, DEL508-508).
T2 construct: Primary human bronchial epithelial cells from a ΔF508 homozygous CF donor; host or cells: primary human bronchial epithelial cells (CF-HBE), ΔF508 homozygous donor
Put plainly: TECC24 AUC fold over DMSO @10 μM, CFTR-mediated transepithelial chloride transport in CF-HBE cells. The note with it: test agent AUC divided by DMSO vehicle AUC, primary CF-HBE cells, ΔF508 homozygous donor, 48 hours incubation. Type of assay: cell-based. Put shortly:
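Primary ΔF508-homozygous CF bronchial epithelial cells on inserts were incubated 48 h at 36.5 °C with compound in IL-13-containing medium. VT and TEER were then recorded in current-clamp mode (pH 7.4 HEPES bath) with benzamil 10 μM, forskolin 10 μM, then CFTR inhibitor-172 20 μM. The IEQ AUC between forskolin and inhibitor was divided by vehicle AUC.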

Results on 20 molecules are retold here after patent publication US12649750B2, “Macrocyclic compounds, compositions, and methods of using thereof” (Sionna Therapeutics Inc., priority 2022, dated 2026).

T1 sequence (P13569 423-646 limits assumed): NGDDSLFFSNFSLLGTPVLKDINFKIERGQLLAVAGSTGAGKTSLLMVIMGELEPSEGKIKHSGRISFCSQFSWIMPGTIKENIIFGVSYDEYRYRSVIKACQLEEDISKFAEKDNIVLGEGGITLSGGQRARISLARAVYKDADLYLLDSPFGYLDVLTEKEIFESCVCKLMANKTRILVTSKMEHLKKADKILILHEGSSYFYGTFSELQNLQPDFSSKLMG
T2 sequence (P13569 with tags, fused parts or gaps DEL508-508): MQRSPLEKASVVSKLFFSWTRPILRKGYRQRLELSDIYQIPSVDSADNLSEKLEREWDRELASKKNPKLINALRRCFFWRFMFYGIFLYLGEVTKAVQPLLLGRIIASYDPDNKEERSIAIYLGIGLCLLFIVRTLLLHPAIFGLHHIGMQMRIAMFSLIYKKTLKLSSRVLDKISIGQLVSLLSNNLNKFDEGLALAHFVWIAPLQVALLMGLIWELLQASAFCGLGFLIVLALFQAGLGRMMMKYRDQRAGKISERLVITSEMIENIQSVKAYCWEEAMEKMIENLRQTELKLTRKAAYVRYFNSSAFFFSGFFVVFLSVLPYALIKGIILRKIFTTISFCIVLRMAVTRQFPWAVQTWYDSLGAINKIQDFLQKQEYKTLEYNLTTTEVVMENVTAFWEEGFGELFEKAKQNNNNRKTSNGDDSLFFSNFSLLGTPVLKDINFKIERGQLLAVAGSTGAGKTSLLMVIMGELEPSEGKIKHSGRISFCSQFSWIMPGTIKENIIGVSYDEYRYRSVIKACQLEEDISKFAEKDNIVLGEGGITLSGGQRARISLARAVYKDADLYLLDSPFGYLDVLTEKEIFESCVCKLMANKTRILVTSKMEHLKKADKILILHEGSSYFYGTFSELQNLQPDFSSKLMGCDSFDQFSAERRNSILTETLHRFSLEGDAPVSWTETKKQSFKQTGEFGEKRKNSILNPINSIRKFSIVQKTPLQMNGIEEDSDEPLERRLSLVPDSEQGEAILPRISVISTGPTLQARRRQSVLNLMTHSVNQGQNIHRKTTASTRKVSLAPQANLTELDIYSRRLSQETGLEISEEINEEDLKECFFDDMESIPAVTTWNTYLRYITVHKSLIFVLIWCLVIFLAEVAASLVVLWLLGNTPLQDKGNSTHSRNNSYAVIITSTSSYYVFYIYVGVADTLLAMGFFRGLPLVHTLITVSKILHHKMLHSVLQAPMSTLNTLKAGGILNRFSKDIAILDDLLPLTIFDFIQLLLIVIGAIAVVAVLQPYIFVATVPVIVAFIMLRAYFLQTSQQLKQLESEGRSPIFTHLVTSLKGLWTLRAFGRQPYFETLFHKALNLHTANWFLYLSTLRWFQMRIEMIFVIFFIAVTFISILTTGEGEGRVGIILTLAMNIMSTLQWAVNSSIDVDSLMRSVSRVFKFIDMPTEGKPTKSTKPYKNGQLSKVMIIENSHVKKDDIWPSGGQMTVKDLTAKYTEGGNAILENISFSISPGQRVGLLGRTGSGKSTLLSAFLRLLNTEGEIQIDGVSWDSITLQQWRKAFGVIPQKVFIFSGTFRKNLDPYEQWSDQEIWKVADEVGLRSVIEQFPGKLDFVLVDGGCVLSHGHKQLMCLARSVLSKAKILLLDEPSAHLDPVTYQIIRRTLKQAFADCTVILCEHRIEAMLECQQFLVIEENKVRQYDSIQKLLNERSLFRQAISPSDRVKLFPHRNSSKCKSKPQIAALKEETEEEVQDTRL

Regarding `Cn1nc2nc1-c1cc(ccn1)[S+]([O-])c1c(F)cc3[nH]ccc3c1CCS(=O)(=O)CC(C)(C)CCC[C@]2(C)c1cccc(CCO)c1` (single isomer, unassigned) [Compound 250], the “DSLS 3D (100 μM ΔT)” value on NBD1 is “C (a value greater than 10 °C and less than or equal to 25 °C is marked “C”)”. For the same molecule, on CFTR, the “TECC (AUC, 10 μM)” value was “C (a value between 20 and 80 is marked “C”)”.

Regarding `C[C@@H](Cc1cccc([C@@]2(C)CCCC(C)(C)CS(=O)(=O)CCc3c(c(F)cc4[nH]ccc34)C(O)c3ccnc(c3)-c3nc2nn3C)c1)C(=O)O` (single isomer, unassigned) [Compound 255A], at NBD1, the “DSLS 3D (100 μM ΔT)” value is “B (a value above 5 °C and less than or equal to 10 °C is marked “B”)”. For the same molecule, the “TECC (AUC, 10 μM)” value at CFTR is on record as “A (a TECC value less than 12 is marked “A”)”.

Take `C[C@@H](Cc1cccc([C@@]2(C)CCCC(C)(C)CS(=O)(=O)CCc3c(c(F)cc4[nH]ccc34)C(O)c3ccnc(c3)-c3nc2nn3C)c1)C(=O)O` (single isomer, unassigned) [Compound 255B]: the “DSLS 3D (100 μM ΔT)” value at NBD1 was “C (a value greater than 10 °C and less than or equal to 25 °C is marked “C”)”. Moreover, at CFTR, the “TECC (AUC, 10 μM)” value is “C (a value between 20 and 80 is marked “C”)”.

On to `Cn1nc2nc1-c1cc(ccn1)[S+]([O-])c1c(F)cc3[nH]ccc3c1CCS(=O)(=O)CC(C)(C)CCC[C@]2(C)c1cccc(CCC(=O)O)c1F` (single isomer, unassigned) [Compound 260A], for which the “DSLS 3D (100 μM ΔT)” value on NBD1 is “C (a value greater than 10 °C and less than or equal to 25 °C is marked “C”)”. Moreover, the “TECC (AUC, 10 μM)” value on CFTR was “C (a value between 20 and 80 is marked “C”)”.

In the case of `Cn1nc2nc1-c1cc(ccn1)[S+]([O-])c1c(F)cc3[nH]ccc3c1CCS(=O)(=O)CC(C)(C)CCC[C@]2(C)c1cccc(CCC(=O)O)c1F` (single isomer, unassigned) [Compound 260B], the “DSLS 3D (100 μM ΔT)” value on NBD1 was “B (a value above 5 °C and less than or equal to 10 °C is marked “B”)”. Moreover, the “TECC (AUC, 10 μM)” value on CFTR was “A (a TECC value less than 12 is marked “A”)”.

On to `C[C@@H](Cc1cccc(C2(C)CCCCCS(=O)(=O)CCc3c(c(F)cc4[nH]ccc34)Oc3ccnc(c3)-c3nc2nn3C)c1)C(=O)O` (single isomer, unassigned) [Compound 261A], for which the “DSLS 3D (100 μM ΔT)” value at NBD1 is “C (a value greater than 10 °C and less than or equal to 25 °C is marked “C”)”. On CFTR, the “TECC (AUC, 10 μM)” value was “C (a value between 20 and 80 is marked “C”)”.

As to `C[C@@H](Cc1cccc(C2(C)CCCCCS(=O)(=O)CCc3c(c(F)cc4[nH]ccc34)Oc3ccnc(c3)-c3nc2nn3C)c1)C(=O)O` (single isomer, unassigned) [Compound 261B], the “DSLS 3D (100 μM ΔT)” value at NBD1 was “A (an ΔTagg value less than or equal to 5 °C is marked “A”)”. Further, the “TECC (AUC, 10 μM)” value at CFTR is listed as “A (a TECC value less than 12 is marked “A”)”.

Regarding `C[C@@H](O)Cc1cccc([C@@]2(C)CCCC(C)(C)CS(=O)(=O)CCc3c(c(F)cc4[nH]ccc34)[S+]([O-])c3ccc(F)c(c3)-c3nc2nn3C)c1` (single isomer, unassigned) [Compound 264], on NBD1, the “DSLS 3D (100 μM ΔT)” value is “C (a value greater than 10 °C and less than or equal to 25 °C is marked “C”)”. Also, the “TECC (AUC, 10 μM)” value at CFTR was “C (a value between 20 and 80 is marked “C”)”.

Consider `C[C@@H](Cc1cccc(C2(C)CCCC(C)(C)CS(=O)(=O)CCc3c(c(F)cc4[nH]ccc34)Oc3ccnc(c3)-c3nc2nn3C)n1)C(=O)O` (single isomer, unassigned) [Compound 266A], for which the “DSLS 3D (100 μM ΔT)” value at NBD1 is “A (an ΔTagg value less than or equal to 5 °C is marked “A”)”. The “TECC (AUC, 10 μM)” value on CFTR was “A (a TECC value less than 12 is marked “A”)”.

For the molecule `C[C@@H](Cc1cccc(C2(C)CCCC(C)(C)CS(=O)(=O)CCc3c(c(F)cc4[nH]ccc34)Oc3ccnc(c3)-c3nc2nn3C)n1)C(=O)O` (single isomer, unassigned) [Compound 266B], the “DSLS 3D (100 μM ΔT)” value on NBD1 is “C (a value greater than 10 °C and less than or equal to 25 °C is marked “C”)”. Also, on CFTR, the “TECC (AUC, 10 μM)” value was “C (a value between 20 and 80 is marked “C”)”.

`C[C@H](Cc1cccc([C@@]2(C)CCCC(C)(C)CS(=O)(=O)CCc3c(c(F)c(F)c4[nH]ccc34)[S+]([O-])c3ccnc(c3)-c3nc2nn3C)c1)C(=O)O` (single isomer, unassigned) [Compound 269]: the “DSLS 3D (100 μM ΔT)” value on NBD1 is “C (a value greater than 10 °C and less than or equal to 25 °C is marked “C”)”. In addition, the “TECC (AUC, 10 μM)” value on CFTR was “C (a value between 20 and 80 is marked “C”)”.

For `Cn1nc2nc1-c1cc(ccn1)[S+]([O-])c1c(F)cc3[nH]ccc3c1CCS(=O)(=O)CC(C)(C)CCC[C@]2(C)c1cccc(CC2(C(=O)O)CC2)c1` (single isomer, unassigned) [Compound 271], at NBD1, the “DSLS 3D (100 μM ΔT)” value was “C (a value greater than 10 °C and less than or equal to 25 °C is marked “C”)”. Besides, on CFTR, the “TECC (AUC, 10 μM)” value was “C (a value between 20 and 80 is marked “C”)”.

Regarding `Cn1nc2nc1-c1cc(ccn1)[S+]([O-])c1c(F)c(F)c3[nH]ccc3c1CCS(=O)(=O)CC(C)(C)CCC[C@]2(C)c1cccc(CC(C)(C)C(=O)O)c1` (single isomer, unassigned) [Compound 274], the “DSLS 3D (100 μM ΔT)” value on NBD1 was “C (a value greater than 10 °C and less than or equal to 25 °C is marked “C”)”. The “TECC (AUC, 10 μM)” value on CFTR was “C (a value between 20 and 80 is marked “C”)”.

As for `Cn1nc2nc1-c1cc(ccn1)[S+]([O-])c1c(F)c(F)c3[nH]ccc3c1CCS(=O)(=O)CC(C)(C)CCC[C@]2(C)c1cccc(CCC(=O)O)c1` (single isomer, unassigned) [Compound 281], on NBD1, the “DSLS 3D (100 μM ΔT)” value was “C (a value greater than 10 °C and less than or equal to 25 °C is marked “C”)”. At CFTR, the “TECC (AUC, 10 μM)” value is “C (a value between 20 and 80 is marked “C”)”.

On to `COCC(Cc1cccc([C@@]2(C)CCCC(C)(C)CS(=O)(=O)CCc3c(c(F)cc4[nH]ccc34)Oc3ccnc(c3)-c3nc2nn3C)c1)C(=O)O` (single isomer, unassigned) [Compound 284], for which, at NBD1, the “DSLS 3D (100 μM ΔT)” value is “C (a value greater than 10 °C and less than or equal to 25 °C is marked “C”)”. For the same molecule, the “TECC (AUC, 10 μM)” value on CFTR is “C (a value between 20 and 80 is marked “C”)”.

Turning to `COCC(Cc1cccc([C@@]2(C)CCCC(C)(C)CS(=O)(=O)CCc3c(c(F)cc4[nH]ccc34)Oc3ccnc(c3)-c3nc2nn3C)c1)C(=O)O` (single isomer, unassigned) [Compound 285], the “DSLS 3D (100 μM ΔT)” value at NBD1 is “C (a value greater than 10 °C and less than or equal to 25 °C is marked “C”)”. Further, the “TECC (AUC, 10 μM)” value on CFTR is “C (a value between 20 and 80 is marked “C”)”.

As to `Cn1nc2nc1-c1cc(ccn1)[S+]([O-])c1c(F)c(F)c3[nH]ccc3c1CCS(=O)(=O)CC(C)(C)CCC[C@]2(C)c1cccc(CC(O)CO)c1` (stereo in doubt) [Compound 292, (2R)-3-[3-[(6R)-21,22-difluoro-3,6,10,10-tetramethyl-12,12,24-trioxo-12λ6,24λ4-dithia-3,4,19,28,30-pentazapentacyclo[23.3.1.12,5.015,23.016,20]triaconta-1(29),2(30),4,15,17,20,22,25,27-nonaen-6-yl]phenyl]propane-1,2-diol], the “DSLS 3D (100 μM ΔT)” value at NBD1 is “C (a value greater than 10 °C and less than or equal to 25 °C is marked “C”)”. In addition, the “TECC (AUC, 10 μM)” value on CFTR is “C (a value between 20 and 80 is marked “C”)”.

As for `Cn1nc2nc1-c1cc(ccc1F)Oc1c(F)cc3[nH]ccc3c1CCS(=O)(=O)CC(C)(C)CCCC2(C)c1cccc(CC(=O)O)c1` (stereo not shown) [Compound 3, 2-[3-(22,28-Difluoro-3,6,10,10-tetramethyl-12,12-dioxo-24-oxa-12λ^6-thia-3,4,19,30-tetrazapentacyclo[23.3.1.1^2,5.0^15,23.0^16,20]triaconta-1(29),2(30),4,15,17,20,22,25,27-nonaen-6-yl)phenyl]acetic Acid], the “DSLS 3D (100 μM ΔT)” value on NBD1 was “C (a value greater than 10 °C and less than or equal to 25 °C is marked “C”)”. The “TECC (AUC, 10 μM)” value at CFTR was “B (a value between 12-20 is marked “B”)”.

On to `Cn1nc2nc1-c1cc(ccc1F)Oc1c(F)cc3[nH]ccc3c1CCS(=O)(=O)CC(C)(C)CCCC2(C)c1cccc(CC2(C(=O)O)CC2)c1` (stereo not shown) [Compound 14, 1-[[3-(22,28-difluoro-3,6,10,10-tetramethyl-12,12-dioxo-24-oxa-12lambda6-thia-3,4,19,30-tetrazapentacyclo[23.3.1.12,5.015,23.016,20]triaconta-1(29),2(30),4,15,17,20,22,25,27-nonaen-6-yl)phenyl]methyl]cyclopropanecarboxylic Acid], for which the “DSLS 3D (100 μM ΔT)” value at NBD1 is “C (a value greater than 10 °C and less than or equal to 25 °C is marked “C”)”. In addition, the “TECC (AUC, 10 μM)” value at CFTR is recorded as “B (a value between 12-20 is marked “B”)”.

As to `CC(Oc1cccc(C2(C)CCCC(C)(C)CS(=O)(=O)CCc3c(c(F)cc4[nH]ccc34)Oc3ccc(F)c(c3)-c3nc2nn3C)c1)C(=O)O` (stereo not shown) [Compound 19B, 2-[3-[22,28-difluoro-3,6,10,10-tetramethyl-12,12-dioxo-24-oxa-12 6-thia-3,4,19,30-tetrazapentacyclo[23.3.1.12,5.015,23.016,20]triaconta-1(29),2(30),4,15,17,20,22,25,27-nonaen-6-yl]phenoxy]propanoic Acid], the “DSLS 3D (100 μM ΔT)” value at NBD1 is “A (an ΔTagg value less than or equal to 5 °C is marked “A”)”. Besides, the “TECC (AUC, 10 μM)” value on CFTR is “A (a TECC value less than 12 is marked “A”)”.
